Measured values from the supplement of paper PMC10331698.
± gives the standard deviation of the averaged measurements.

Assays:
Assay in all cases: level (log10 ratio to DMSO vehicle control); higher = higher biomarker level / cell amount than vehicle control
Details in all cases: in DMSO
[1] = compound: C=C(C)C(=O)OCC(F)(F)C(F)(F)C(F)(F)F [2,2,3,3,4,4,4-Heptafluorobutyl methacrylate]
Procedure: (§1)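 BioMAP Diversity Plus panel of 12 human primary cell co-culture systems (3C, 4H, LPS, SAg, BT, BF4T, BE3C, CASM3C, HDF3CGF, KF3CT, MyoF, Mphg). Compounds were added 1 h before stimulation and left for 24 h (MyoF 48 h; BT 72 h for soluble read-outs or 6 d for IgG). Biomarkers were read by ELISA, cytotoxicity by SRB, PBMC viability and proliferation by Alamar Blue. Each well value was divided by the mean of 8 DMSO control wells on the same plate and log10 transformed; duplicate blinded samples were tested at 4 concentrations.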

[2] = compound: O=C(CC(=O)C(F)(F)C(F)(F)C(F)(F)F)c1cccs1 [(Perfluorobutyryl)-2-thenoylmethane]
Procedure: as §1

[3] = compound: O=C(Cl)C(F)(F)C(F)(F)C(F)(F)C(=O)Cl [Hexafluoroglutaryl chloride]
Procedure: as §1

[4] = compound: O=C(O)C(F)(F)C(F)(F)C(=O)O [Tetrafluorosuccinic acid]
Procedure: as §1

[5] = compound: O=S(=O)(O)CCC(F)(F)C(F)(F)C(F)(F)C(F)(F)F [4:2 Fluorotelomer sulfonic acid]
Procedure: as §1

[6] = compound: O=S(=O)(OCC(F)(F)F)C(F)(F)C(F)(F)C(F)(F)C(F)(F)F [2,2,2-Trifluoroethyl perfluorobutanesulfonate]
Procedure: as §1

[7] = compound: OC(C(F)(F)F)(C(F)(F)F)C(O)(C(F)(F)F)C(F)(F)F [Perfluoropinacol]
Procedure: as §1

3C:CD87/uPAR
level (log10) ([1]; 6700 nM): -0.01 ± 0.025
level (log10) ([1]; 20000 nM): -0.0125 ± 0.036
level (log10) ([1]; 60000 nM): 0.012 ± 0.0085
level (log10) ([2]; 6700 nM): -0.148 ± 0.033
level (log10) ([2]; 20000 nM): -0.07 ± 0.03
level (log10) ([3]; 6700 nM): -0.009 ± 0.0071
level (log10) ([3]; 20000 nM): 0.0225 ± 0.022
level (log10) ([3]; 60000 nM): 0.003 ± 0.041
level (log10) ([4]; 6700 nM): -0.022 ± 0.024
level (log10) ([4]; 20000 nM): -0.0085 ± 0.0078
level (log10) ([4]; 60000 nM): -0.019 ± 0.033
level (log10) ([5]; 6700 nM): -0.05 ± 0.047
level (log10) ([5]; 20000 nM): -0.017 ± 0.069
level (log10) ([5]; 60000 nM): 0.002 ± 0.058
level (log10) ([6]; 6700 nM): 0.0115 ± 0.023
level (log10) ([6]; 20000 nM): -0.014 ± 0.035
level (log10) ([6]; 60000 nM): -0.139 ± 0.099
level (log10) ([7]; 6700 nM): -0.159 ± 0.04
level (log10) ([7]; 20000 nM): -0.29 ± 0.022

3C:CXCL8/IL-8
level (log10) ([1]; 6700 nM): 0.0395 ± 0.042
level (log10) ([1]; 20000 nM): 0.039 ± 0.0014
level (log10) ([1]; 60000 nM): 0.051 ± 0.04
level (log10) ([2]; 6700 nM): -0.112 ± 0.0035
level (log10) ([2]; 20000 nM): -0.091 ± 0.014
level (log10) ([3]; 6700 nM): -0.007 ± 0.023
level (log10) ([3]; 20000 nM): -0.0075 ± 0.029
level (log10) ([3]; 60000 nM): 0.047 ± 0.048
level (log10) ([4]; 6700 nM): -0.0265 ± 0.015
level (log10) ([4]; 20000 nM): -0.0235 ± 0.012
level (log10) ([4]; 60000 nM): -0.0005 ± 0.049
level (log10) ([5]; 6700 nM): -0.0175 ± 0.04
level (log10) ([5]; 20000 nM): -0.011 ± 0.072
level (log10) ([5]; 60000 nM): 0.035 ± 0.1
level (log10) ([6]; 6700 nM): 0.0105 ± 0.012
level (log10) ([6]; 20000 nM): 0.014 ± 0.024
level (log10) ([6]; 60000 nM): 0.064 ± 0.071
level (log10) ([7]; 6700 nM): 0.0215 ± 0.012
level (log10) ([7]; 20000 nM): -0.0255 ± 0.026

3C:CXCL9/MIG
level (log10) ([1]; 6700 nM): -0.0035 ± 0.005
level (log10) ([1]; 20000 nM): 0.002
level (log10) ([1]; 60000 nM): 0.0095 ± 0.021
level (log10) ([2]; 6700 nM): -0.0205 ± 0.012
level (log10) ([2]; 20000 nM): -0.0255 ± 0.0021
level (log10) ([3]; 6700 nM): -0.0035 ± 0.005
level (log10) ([3]; 20000 nM): -0.004 ± 0.0014
level (log10) ([3]; 60000 nM): 0.002 ± 0.0085
level (log10) ([4]; 6700 nM): 0.0025 ± 0.015
level (log10) ([4]; 20000 nM): -0.0145 ± 0.012
level (log10) ([4]; 60000 nM): 0.0035 ± 0.028
level (log10) ([5]; 6700 nM): -0.0005 ± 0.005
level (log10) ([5]; 20000 nM): 0.005 ± 0.011
level (log10) ([5]; 60000 nM): 0.001 ± 0.014
level (log10) ([6]; 6700 nM): 0.0075 ± 0.043
level (log10) ([6]; 20000 nM): 0.0045 ± 0.026
level (log10) ([6]; 60000 nM): 0.0025 ± 0.022
level (log10) ([7]; 6700 nM): -0.005 ± 0.013
level (log10) ([7]; 20000 nM): -0.014 ± 0.0085

3C:HLA-DR
level (log10) ([1]; 6700 nM): -0.01 ± 0.013
level (log10) ([1]; 20000 nM): -0.0055 ± 0.0078
level (log10) ([1]; 60000 nM): 0.001 ± 0.0042
level (log10) ([2]; 6700 nM): -0.093 ± 0.045
level (log10) ([2]; 20000 nM): -0.511 ± 0.026
level (log10) ([3]; 6700 nM): -0.008 ± 0.023
level (log10) ([3]; 20000 nM): -0.006 ± 0.013
level (log10) ([3]; 60000 nM): -0.0085 ± 0.0035
level (log10) ([4]; 6700 nM): 0.0005 ± 0.025
level (log10) ([4]; 20000 nM): -0.0075 ± 0.0021
level (log10) ([4]; 60000 nM): -0.0045 ± 0.032
level (log10) ([5]; 6700 nM): -0.019 ± 0.0028
level (log10) ([5]; 20000 nM): -0.0095 ± 0.0078
level (log10) ([5]; 60000 nM): -0.005 ± 0.028
level (log10) ([6]; 6700 nM): -0.01 ± 0.011
level (log10) ([6]; 20000 nM): -0.0135 ± 0.0092
level (log10) ([6]; 60000 nM): -0.032 ± 0.0014
level (log10) ([7]; 6700 nM): -0.0405 ± 0.0035
level (log10) ([7]; 20000 nM): -0.132 ± 0.028

3C:Proliferation
level (log10) ([1]; 6700 nM): -0.0315 ± 0.044
level (log10) ([1]; 20000 nM): -0.0325 ± 0.033
level (log10) ([1]; 60000 nM): -0.049 ± 0.02
level (log10) ([2]; 6700 nM): -0.276 ± 0.04
level (log10) ([2]; 20000 nM): -0.891 ± 0.063
level (log10) ([3]; 6700 nM): -0.0045 ± 0.026
level (log10) ([3]; 20000 nM): 0.006 ± 0.018
level (log10) ([3]; 60000 nM): -0.0345 ± 0.036
level (log10) ([4]; 6700 nM): -0.0155 ± 0.028
level (log10) ([4]; 20000 nM): -0.01 ± 0.0014
level (log10) ([4]; 60000 nM): -0.0265 ± 0.021
level (log10) ([5]; 6700 nM): 0.0045 ± 0.083
level (log10) ([5]; 20000 nM): 0.0155 ± 0.013
level (log10) ([5]; 60000 nM): 0.003 ± 0.0085
level (log10) ([6]; 6700 nM): 0.002 ± 0.062
level (log10) ([6]; 20000 nM): -0.025 ± 0.04
level (log10) ([6]; 60000 nM): -0.0475 ± 0.028
level (log10) ([7]; 6700 nM): -0.151 ± 0.0028
level (log10) ([7]; 20000 nM): -0.441 ± 0.086

3C:SRB
level (log10) ([1]; 6700 nM): -0.0125 ± 0.0021
level (log10) ([1]; 20000 nM): -0.001 ± 0.0057
level (log10) ([1]; 60000 nM): 0.0035 ± 0.00071
level (log10) ([2]; 6700 nM): -0.0035 ± 0.028
level (log10) ([2]; 20000 nM): -0.139 ± 0.021
level (log10) ([3]; 6700 nM): -0.0025 ± 0.0035
level (log10) ([3]; 20000 nM): 0.008 ± 0.013
level (log10) ([3]; 60000 nM): 0.013 ± 0.0071
level (log10) ([4]; 6700 nM): -0.0065 ± 0.011
level (log10) ([4]; 20000 nM): -0.0135 ± 0.0078
level (log10) ([4]; 60000 nM): -0.021 ± 0.017
level (log10) ([5]; 6700 nM): -0.0135 ± 0.011
level (log10) ([5]; 20000 nM): -0.0145 ± 0.0078
level (log10) ([5]; 60000 nM): -0.0255 ± 0.025
level (log10) ([6]; 6700 nM): -0.0135 ± 0.0021
level (log10) ([6]; 20000 nM): -0.014 ± 0.0028
level (log10) ([6]; 60000 nM): -0.0295 ± 0.012
level (log10) ([7]; 6700 nM): -0.0665 ± 0.013
level (log10) ([7]; 20000 nM): -0.188 ± 0.0028
